The text below walks through data of patent US20030050247A1, “Chemically-modified peptides, compositions, and methods of production and use” (priority 2000, published 2003).

The subject of series [1] is Salmonella typhimurium and Clostridium botulinum. Format: cell-based. The settings on record: food preservative; Example 16.
The test system of a further series is E. coli. The series can be described thus: Antimicrobial activity of peptide-containing fiber (textiles). The settings on record: Example 17.
Series [2] concerns K. pneumoniae and P. aeruginosa. Kind of series: Antimicrobial assay (MIC, growth inhibited by >90%), Examples 2 and 3. The settings on record: for efficacy (in words): Example 3, second octyl group, compared to the -NH2 peptides, Trp replaced.
Series [3] concerns Aspergillus niger (ATCC 16888). As to conditions: 22 h at 30° C.
A short description of another series: in vitro. As to conditions: Vero cells (ATCC CCL81), non-infected.
A further series deals with P. aeruginosa. The series can be described thus: Antimicrobial assay, bacterial paper mill isolates. The class given is cell-based, Pseudomonas aeruginosa. The settings on record: paper mill isolate; TGE medium; 30° C.
The subject of the next series is C. acidivorans. Kind of series: Antimicrobial assay, bacterial paper mill isolates. The class given is cell-based, Comamonas acidivorans. The settings on record: paper mill isolate; TGE medium; 30° C.
In the next series the test system is Bacillus. The series can be described thus: Antimicrobial assay, bacterial cooling tower isolates. The settings on record: cooling tower isolate; TGE; 18 hr at 35° C. Format: cell-based.
For series [4], the system named is Desulfovibrio desulfuricans (ATCC 7757).
Another series relates to X. maltophila. Kind of series: Antimicrobial assay, bacterial paper mill isolates. The settings on record: paper mill isolate; TGE medium; 37° C. Format: cell-based, Xanthomonas maltophila.
The next series relates to E. cloacae. The series can be described thus: Antimicrobial assay, bacterial paper mill isolates. Format: cell-based, Enterobacter cloacae. The settings on record: paper mill isolate; TGE medium; 30° C.
A further series has as its system Aeromonas. The settings on record: 18 h.

Converted amounts (≈) assume the structure as drawn. Where two headings read alike, the source gives them in different places. The star is where a group is joined. Octanoyl = CCCCCCCC(=O)*

As for Octanoyl-Lys-Arg-NH-octyl, the MIC result in series [1] is “≦ 4 μg/ml”.
As for “Octanoyl-Arg-Phe-Phe-Arg-NH-octyl (RFFR; HELM PEPTIDE1{[CCCCCCCC(=O)[*:2]].R.F.F.R.[CCCCCCCCN[*:1]]}$$$$V2.0; SMILES CCCCCCCCNC(=O)[C@H](CCCNC(=N)N)NC(=O)[C@H](Cc1ccccc1)NC(=O)[C@H](Cc1ccccc1)NC(=O)[C@H](CCCNC(=N)N)NC(=O)CCCCCCC)”, the MIC result against E. coli is “≦ 4 μg/ml”.
Take Octanoyl-Arg-Trp-Phe-NH2: the MIC entry (in the series with E. coli; in series [1]) was “≦ 15 μg/ml” throughout.
Regarding Octanoyl-Arg-Tyr-NH-octyl, in series [2], the “efficacy (in words)” value was “enhanced efficacy”.
As to Octanoyl-Arg-Ala-NH-octyl, the MIC entry in series [1] is given as “≦ 15 μg/ml”.
Take Octanoyl-Arg-Arg-Arg-NH-octyl: in the series with E. coli, the MIC entry is recorded as “≦ 8 μg/ml”.
Take Decanoyl-Arg-NH-decyl: the MIC entry with E. coli was “≦ 15 μg/ml”.
For `CCCCCCCCCNC(=O)[C@H](CCCNC(=N)N)NC(=O)CCCCCCCC` [Nonanoyl-Arg-NH-nonyl], the values for the Growth was inhibited in [3] (1 μg/ml of peptide), in [3] (7.8 μg/ml) and in series [3] (concentrations as low as 15.6 μg/ml) were 43%, 83% and 98%, respectively. Moreover, in [1], the minimal inhibitory concentration (MIC) entry is “≦ 4 μg/ml”.
Take Octanoyl-Arg-Phe-NH-octyl: the “efficacy (in words)” value in [2] was “enhanced efficacy”. The MIC entry in series [1] was “≦ 8 μg/ml”.
As to Octanoyl-Arg-Trp-NH2, the MIC entry (in the series with E. coli; in [1]) was “≦ 15 μg/ml” each time. Further, in [2] (Example 2, acyl chain length and amino acid composition), the “peptide efficacy (MIC values, in words)” value is on record as “greatest activity”.
With `CCCCCCCCNC(=O)[C@H](CCCNC(=N)N)NC(=O)[C@H](CCCNC(=N)N)NC(=O)CCCCCCC` [Octanoyl-Arg-Arg-NH-octyl], the viability at 125 ppm in the series “in vitro” worked out at 59%.
In the case of Nonanoyl-Arg-Arg-NH-nonyl, the MIC entry with E. coli is on record as “≦ 2 μg/ml”.
`CCCCCCCCNC(=O)[C@H](CCCNC(=N)N)NC(=O)CCCCCCC` [Octanoyl-R-NH-octyl, Octanoyl-Arg-NH-octyl]: the MIC entry against P. aeruginosa was “≦10 μg/ml”; in the series with C. acidivorans it was over 313 µg/mL; in the series with Bacillus, 15.6 µg/mL (≈ 37.9 µM); in [4] it was 62.5 to 125 µg/mL; against X. maltophila, “≦5 μg/ml”; against E. cloacae, over 313 µg/mL. In the series with Aeromonas, this molecule returned an MIC of 62.5 µg/mL (≈ 152 µM).
On to Octanoyl-Arg-Cys-NH-octyl, for which the MIC result in series [1] was “≦ 15 μg/ml”.
